Experimental data from ChEMBL document CHEMBL6127076, “Scaffold hopping-driven optimization for the identification of NLRP3 inhibitors as potential gout therapeutics” (Eur J Med Chem, 2024).
In brackets after ≈: the same amount, converted by molar mass. Activity calls are given as the source filed them. The rule behind the calls is not given here.

What was measured:
[1] = tested on: Mus musculus; experiment: Anti-inflammatory activity against MSU-induced peritonitis mouse model assessed as reduction in IL-1beta secretion in peritoneal cavity at 10 mg/kg, treated by gavage 30 mins before MSU induction measured after 6 hrs modeling by ELISA; type: functional, organism-based
[2] = Plasma stability in human plasma assessed as compound remaining measured after 120 mins; type: ADME, cell-free; settings: read-out: Stability
[3] = Plasma stability in human plasma assessed as compound remaining measured after 15 mins; type: ADME, cell-free; settings: read-out: Stability
[4] = Plasma stability in human plasma assessed as half life; type: ADME, cell-free
[5] = Plasma stability in human plasma assessed as compound remaining measured after 5 mins; type: ADME, cell-free; settings: read-out: Stability
[6] = Plasma stability in human plasma assessed as compound remaining measured after 60 mins; type: ADME, cell-free; settings: read-out: Stability
[7] = Plasma stability in human plasma assessed as compound remaining measured after 30 mins; type: ADME, cell-free; settings: read-out: Stability
[8] = molecular target: Cytochrome P450 2C19 (Homo sapiens, UniProt P33261); experiment: Inhibition of CYP2C19 (unknown origin); type: ADME
[9] = molecular target: T1, Cytochrome P450 1A2 (Homo sapiens, UniProt P05177); experiment: Inhibition of CYP1A2 (unknown origin); type: ADME
T1 sequence (P05177 whole entry): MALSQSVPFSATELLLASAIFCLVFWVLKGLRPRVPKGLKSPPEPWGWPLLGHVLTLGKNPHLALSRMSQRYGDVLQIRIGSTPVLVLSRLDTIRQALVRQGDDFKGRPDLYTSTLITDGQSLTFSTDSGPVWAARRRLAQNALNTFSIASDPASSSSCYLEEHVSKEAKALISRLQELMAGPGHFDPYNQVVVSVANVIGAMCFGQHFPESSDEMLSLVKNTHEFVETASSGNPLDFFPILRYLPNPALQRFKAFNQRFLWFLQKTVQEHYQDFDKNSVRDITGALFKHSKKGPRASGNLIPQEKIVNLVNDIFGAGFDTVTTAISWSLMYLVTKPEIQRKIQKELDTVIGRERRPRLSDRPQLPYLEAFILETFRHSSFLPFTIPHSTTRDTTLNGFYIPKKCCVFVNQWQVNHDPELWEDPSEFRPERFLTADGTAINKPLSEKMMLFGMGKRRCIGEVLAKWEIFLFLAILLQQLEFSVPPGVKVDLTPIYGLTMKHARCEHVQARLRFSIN

[10] = Plasma stability in human plasma assessed as compound remaining measured immediately; type: ADME, cell-free; settings: read-out: Stability
[11] = Aqueous solubility of the compound in pH 7.4 PBS buffer; type: physicochemical
[12] = Inhibition of NLRP3 inflammasome pathway in human THP-1 cells assessed as inhibition of LPS/MSU-induced IL-1beta secretion
[13] = molecular target: Cytochrome P450 2C9 (Homo sapiens, UniProt P11712); experiment: Inhibition of CYP2C9 (unknown origin); type: ADME
[14] = molecular target: T2, Cytochrome P450 3A4 (Homo sapiens, UniProt P08684); experiment: Inhibition of CYP3A4 (unknown origin) using testosterone as substrate; type: ADME
[15] = molecular target: Cytochrome P450 2D6 (Homo sapiens, UniProt P10635); experiment: Inhibition of CYP2D6 (unknown origin); type: ADME
[16] = molecular target: T2, Cytochrome P450 3A4; experiment: Inhibition of CYP3A4 (unknown origin) using midazolam as substrate; type: ADME
[17] = tested on: HEK-293T; experiment: Cytotoxicity against human HEK293T cells assessed as cell viability at 50 uM measured after 24 hrs by CCK8 assay; type: toxicity, cell-based

Cytochrome P450 2C19, sequence (P33261 whole entry): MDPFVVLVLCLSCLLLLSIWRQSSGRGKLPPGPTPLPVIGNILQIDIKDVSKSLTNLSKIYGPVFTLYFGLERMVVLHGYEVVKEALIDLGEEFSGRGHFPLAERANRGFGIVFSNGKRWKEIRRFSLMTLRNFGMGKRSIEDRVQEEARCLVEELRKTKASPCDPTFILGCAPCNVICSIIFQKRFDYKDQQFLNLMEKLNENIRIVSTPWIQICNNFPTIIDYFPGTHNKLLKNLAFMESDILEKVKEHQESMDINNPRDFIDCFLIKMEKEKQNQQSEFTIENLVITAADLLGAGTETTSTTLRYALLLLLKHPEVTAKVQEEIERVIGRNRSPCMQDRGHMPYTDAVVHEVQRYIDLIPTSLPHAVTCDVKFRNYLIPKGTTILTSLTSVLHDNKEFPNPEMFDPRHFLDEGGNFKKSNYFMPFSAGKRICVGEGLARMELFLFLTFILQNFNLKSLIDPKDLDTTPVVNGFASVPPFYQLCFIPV
T2 sequence (P08684 whole entry): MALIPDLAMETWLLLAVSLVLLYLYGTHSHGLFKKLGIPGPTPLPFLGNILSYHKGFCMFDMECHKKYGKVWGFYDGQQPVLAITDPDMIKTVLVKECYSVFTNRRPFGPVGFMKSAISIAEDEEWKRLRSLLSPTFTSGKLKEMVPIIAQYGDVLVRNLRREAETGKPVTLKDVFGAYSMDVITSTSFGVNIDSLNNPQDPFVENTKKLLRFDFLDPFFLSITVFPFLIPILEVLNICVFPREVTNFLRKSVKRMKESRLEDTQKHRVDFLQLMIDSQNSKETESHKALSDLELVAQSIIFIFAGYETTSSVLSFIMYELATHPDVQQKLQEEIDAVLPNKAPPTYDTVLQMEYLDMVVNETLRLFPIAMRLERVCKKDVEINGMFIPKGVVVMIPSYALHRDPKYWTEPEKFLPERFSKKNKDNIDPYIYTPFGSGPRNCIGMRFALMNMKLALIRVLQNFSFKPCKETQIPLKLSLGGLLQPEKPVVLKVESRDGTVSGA
Cytochrome P450 2D6, sequence (P10635 whole entry): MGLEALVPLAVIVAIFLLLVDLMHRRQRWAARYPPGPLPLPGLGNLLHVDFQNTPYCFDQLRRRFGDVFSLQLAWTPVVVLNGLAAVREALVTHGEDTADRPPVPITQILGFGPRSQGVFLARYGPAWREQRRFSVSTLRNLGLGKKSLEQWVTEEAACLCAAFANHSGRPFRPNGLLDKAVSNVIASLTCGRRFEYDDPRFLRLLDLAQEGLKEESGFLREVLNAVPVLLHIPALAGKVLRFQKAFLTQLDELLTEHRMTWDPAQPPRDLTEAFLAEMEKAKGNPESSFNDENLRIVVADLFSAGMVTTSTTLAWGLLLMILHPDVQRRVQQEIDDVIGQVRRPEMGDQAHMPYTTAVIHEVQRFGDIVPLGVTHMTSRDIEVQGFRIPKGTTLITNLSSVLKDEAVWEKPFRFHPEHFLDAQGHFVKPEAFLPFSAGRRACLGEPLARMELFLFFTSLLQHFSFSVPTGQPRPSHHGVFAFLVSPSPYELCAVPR
Cytochrome P450 2C9, sequence (P11712 whole entry): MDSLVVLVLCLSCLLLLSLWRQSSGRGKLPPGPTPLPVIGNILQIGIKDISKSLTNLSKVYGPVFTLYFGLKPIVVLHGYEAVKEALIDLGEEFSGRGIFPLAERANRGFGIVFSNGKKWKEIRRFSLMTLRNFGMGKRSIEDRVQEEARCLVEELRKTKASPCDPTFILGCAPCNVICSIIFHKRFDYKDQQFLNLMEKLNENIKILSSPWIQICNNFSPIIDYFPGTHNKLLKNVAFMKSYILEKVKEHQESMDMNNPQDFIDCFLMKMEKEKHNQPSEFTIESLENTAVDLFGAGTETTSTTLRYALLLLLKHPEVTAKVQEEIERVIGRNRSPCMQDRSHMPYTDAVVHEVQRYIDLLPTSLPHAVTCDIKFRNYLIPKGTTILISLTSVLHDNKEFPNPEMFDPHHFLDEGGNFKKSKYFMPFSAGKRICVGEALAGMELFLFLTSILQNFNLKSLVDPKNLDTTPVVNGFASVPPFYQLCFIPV

## CC(C)(O)c1coc(S(=O)(=O)NC(=O)Nc2c3c(cc4c2CCC4)CCC3)c1
[1]
  Activity: Active

## CC(C)[N+](C)(CCOC(=O)C1c2ccccc2Oc2ccccc21)C(C)C [PROPANTHELINE]
[2]
  remaining at 2 h: 2.91%
[3]
  remaining at 0.25 h: 58.5%
[4]
  half-life: 23.2 min
[5]
  remaining at 5 min: 88%
[6]
  remaining at 1 h: 10.7%
[7]
  remaining at 0.5 h: 37.4%

## CC1(C)C(=O)N(c2cc(C(F)(F)F)cc(C(F)(F)F)c2)C(=S)N1Cc1ccc(S(N)(=O)=O)c(F)c1
[8]
  IC50: > 10 µM
[2]
  remaining at 2 h: 91.8%
[9]
  IC50: > 100 µM
[3]
  remaining at 0.25 h: 98.8%
[10]
  remaining at 0 min: 100%
[5]
  remaining at 5 min: 91.3%
[11]
  solubility: 14 µM (≈ 7.61 µg/mL)
[12]
  IC50: 8.3 µM
[13]
  IC50: 10.2 µM
[14]
  IC50: > 10 µM
[15]
  IC50: > 10 µM
[6]
  remaining at 1 h: 100%
[7]
  remaining at 0.5 h: 93.3%
[16]
  IC50: > 10 µM
[17]
  Activity: Toxic

## Cc1ccc(CN2C(=S)N(c3ccc(C#N)c(C(F)(F)F)c3)C(=O)C2(C)C)cc1C
[12]
  IC50: > 20 µM

## CC(C)NCC(O)COc1cccc2ccccc12 (configuration not stated) [PROPRANOLOL]
[11]
  solubility: 91.2 µM (≈ 23.7 µg/mL)

## COc1ccc(N2C(=O)/C(=C/c3ccccc3C(F)(F)F)SC2=S)cc1
[8]
  IC50: 6.87 µM
[2]
  remaining at 2 h: 3.67%
[9]
  IC50: 5.2 µM
[3]
  remaining at 0.25 h: 106%
[4]
  half-life: 20.3 min
[10]
  remaining at 0 min: 100%
[5]
  remaining at 5 min: 112%
[11]
  solubility: 0.012 µM (≈ 0.00475 µg/mL)
[13]
  IC50: 4.65 µM
[14]
  IC50: > 10 µM
[15]
  IC50: > 10 µM
[6]
  remaining at 1 h: 4.34%
[7]
  remaining at 0.5 h: 23.9%
[16]
  IC50: > 10 µM

## CC1(C)C(=O)N(c2ccc(Oc3ccccc3)cc2)C(=S)N1Cc1ccc(S(N)(=O)=O)c(F)c1
[8]
  IC50: 4.43 µM
[2]
  remaining at 2 h: 93.3%
[9]
  IC50: > 100 µM
[3]
  remaining at 0.25 h: 101%
[10]
  remaining at 0 min: 100%
[5]
  remaining at 5 min: 97.2%
[11]
  solubility: 2.56 µM (≈ 1.28 µg/mL)
[12]
  IC50: 5.3 µM
[13]
  IC50: 7.73 µM
[14]
  IC50: > 10 µM
[15]
  IC50: > 10 µM
[6]
  remaining at 1 h: 101%
[7]
  remaining at 0.5 h: 92.3%
[16]
  IC50: > 10 µM
[17]
  Activity: Toxic

## COc1ccc(N2C(=O)C(C)(C)N(Cc3ccc(C(C)C)cc3)C2=S)cc1
[12]
  IC50: 15.7 µM

## c1ccc(-c2nc[nH]c2-c2ccccc2)cc1
[11]
  solubility: 13.6 µM (≈ 3 µg/mL)

## COc1ccc(CN2C(=S)N(c3ccc(C(C)(C)C)cc3)C(=O)C2(C)C)cc1F
[12]
  IC50: 13.9 µM

## CC(C)(C)c1ccc(N2C(=O)C(C)(C)N(Cc3ccc4ncoc4c3)C2=S)cc1
[12]
  IC50: > 20 µM

## COc1ccc(N2C(=O)C(C)(C)N(Cc3ccc(C)cc3)C2=S)cc1
[12]
  IC50: > 20 µM

## CCCSc1ccc2nc(NC(=O)OC)[nH]c2c1 [ALBENDAZOLE]
[11]
  solubility: 1.65 µM (≈ 0.438 µg/mL)

## C=C1C(=O)[C@]23[C@H](O)[C@H]1CC[C@H]2[C@@]12CO[C@]3(O)[C@@H](O)[C@@H]1C(C)(C)CC[C@@H]2O [ORIDONIN]
[12]
  IC50: 1.9 µM

## CC1(C)C(=O)N(c2cccnc2)C(=S)N1Cc1ccc(S(N)(=O)=O)c(F)c1
[12]
  IC50: > 20 µM

## COc1ccc(N2C(=O)C(C)(C)N(Cc3ccc(Br)c(C)c3)C2=S)cc1
[8]
  IC50: 1.4 µM
[2]
  remaining at 2 h: 97.3%
[9]
  IC50: > 100 µM
[3]
  remaining at 0.25 h: 96.6%
[4]
  half-life: 18000 min
[10]
  remaining at 0 min: 100%
[5]
  remaining at 5 min: 99.2%
[11]
  solubility: 0.032 µM (≈ 0.0139 µg/mL)
[12]
  IC50: 10.1 µM
[13]
  IC50: 6.15 µM
[14]
  IC50: > 10 µM
[15]
  IC50: > 10 µM
[6]
  remaining at 1 h: 105%
[7]
  remaining at 0.5 h: 104%
[16]
  IC50: > 10 µM
[17]
  Activity: Toxic
